Experimental data reported in article PMC4922569, “Antifibrotic Effects of the Dual CCR2/CCR5 Antagonist Cenicriviroc in Animal Models of Liver and Kidney Fibrosis” (PLoS ONE, 2016).
Counter-ions that a name gives are not always drawn.

What was measured:
[1] = tested on: CCR2; conditions: cited from earlier work
[2] = Body and kidney weights and clinical condition, UUO model; format: in vivo; conditions: for Contralateral kidney weight / Final body weight / Obstructed kidney weight: UUO model, average±SEM
Procedure: Male CD-1 mice (n = 51; 7–8 weeks of age; Charles River Laboratories, USA) were allocated to weight-matched treatment groups on Day -1 (1 day prior to either sham [one group] or permanent right UUO surgery [five groups] via aseptic laparotomy). From Days -1 to 4, mice received phosphate-buffered saline (PBS) IP QD, apart from a positive-control group, which received 1D11 (anti-TGF-beta1 antibody) 3 mg/kg IP QD. From Days 0 to 5, mice received vehicle control (sham surgery, UUO-control and UUO+positive-control groups) or CVC 7 mg/kg/day (CVC7), CVC20 or CVC100 PO BID (S1 Table). […] Study endpoints included: body and kidney weights, mRNA expression (TGF-beta, connective tissue growth factor, MCP-1, alpha-SMA, collagen 1a1, fibronectin-1 and collagen 3a1), extracellular matrix protein in renal cortical tissue (hydroxyproline content) and histological analyses. Blood and tissue samples were collected from anesthetized mice 4 hours post-dose on Day 5, prior to sacrifice. A mid-transverse section of the right obstructed kidney was collected for histological analysis.
(§1) Body weight (measured before and during treatment) and sacrificed animal body and liver/kidney/spleen weights were recorded.

[3] = Body and liver weights, TAA model; format: in vivo, rat; conditions: average±SD
Procedure: (§2) Using male Sprague-Dawley rats (n = 72, 10–12 weeks of age; Harlan Laboratories, USA), fibrosis was induced by IP administration of TAA at a dose of 150 mg/kg three times per week for 8 weeks. Rats (n = 4–8/group) received vehicle control, CVC 30 mg/kg/day (CVC30) or CVC100 QD PO during Weeks 0–8 (early intervention), Weeks 4–8 (established fibrosis) or Weeks 8–12 (cirrhosis reversal) and were sacrificed at Weeks 8, 8 or 12, respectively (S1 Table). Study endpoints included: body and liver weights, liver biochemistry (e.g. serum alanine and aspartate aminotransferase [ALT/AST]), extracellular matrix protein expression in liver tissue (collagen type 1 and alpha-SMA), mRNA expression (collagen type 1, alpha-SMA, beta-platelet-derived growth factor-beta receptor, TGF beta-receptor, matrix metalloproteinase 2, tissue inhibitor of metalloproteinases 1 [TIMP1] and 2 [TIMP2]) and liver morphology. For liver-function testing, plasma samples were obtained from blood collected from the vena cava. Livers were sectioned and fixed in 3.7% formalin, embedded in paraffin, cut at […] thickness and stained with hematoxylin and eosin (H&E) for histological examination.
as §1

[4] = tested on: TAA-induced liver fibrosis; test: Rat model of thioacetamide (TAA)-induced liver fibrosis; format: in vivo; conditions: for Reduction in liver collagen deposition vs vehicle control: picrosirius red; for Reduction in protein expression of alpha-SMA vs vehicle control / Reduction in protein expression of collagen type 1 vs vehicle control: western blot, not statistically significant
Procedure: The TAA model is commonly used for the evaluation of treatment at various stages of disease, from inflammation to cirrhosis. The protocol was approved by the Mount Sinai IACUC (approval number: LA12-00318) and animals were maintained according to the NIH guidelines. Anesthesia was performed with 1–5% isoflurane through inhalation; surgery was terminal.
as §2
In the TAA model, serum ALT/AST levels were measured using VITROS® 5,1 FS (Ortho Clinical Diagnostics, USA), with plasma diluted with VITROS® 7% bovine serum albumin if needed. In the NASH model, plasma ALT levels were measured by FUJI DRI-CHEM 7000 (Fujifilm, Japan) and plasma CCL2 concentration quantified by the mouse CCL2/JE/MCP-1 immunoassay kit (R&D, USA).
Collagen deposition (the extent of fibrosis) was visualized in liver/kidney sections with picrosirius red staining. In the TAA model, collagen quantification was performed using computerized Life Science morphometry system (BIOQUANT, USA) on a total of 36 images per animal at 100x magnification (four picrosirius red-stained slides per animal, with nine images taken randomly per slide).
In the TAA model, total protein was extracted from liver cells and expression levels of collagen type 1 and alpha-SMA were assessed by western blotting. Protein expression levels were normalized to the reference protein (glyceraldehyde-3-phosphate dehydrogenase [GAPDH] or calnexin).
In the hepatic-fibrosis models, RNA was extracted from liver tissues and purified, and 1 μg of total mRNA was reverse-transcribed into complementary DNA. Expression levels were determined by quantitative polymerase chain reaction (PCR) (iQ™ SYBR® Green Supermix [Bio-Rad Laboratories, USA] on the LightCycler® 480 Real-Time PCR System [Roche, Switzerland]) in the TAA model at Week 8 (early intervention and established fibrosis) and Week 12 (cirrhosis reversal), and by real-time PCR (PCR Dice® and SYBR® Premix Ex Taq™ [Takara Bio Inc., Japan]) at Week 9 in the NASH model.
Relative mRNA expression levels were normalized to the following reference genes: TAA model, GAPDH; NASH model, 36B4 (gene symbol: Rplp0); UUO model, hypoxanthine phosphoribosyltransferase.
Data are presented as ±standard error of the mean (SEM) in the TAA model. Statistical significance was determined by the two-tailed Student’s t test.

[5] = tested on: APAP-induced liver injury; conditions: cited from earlier work
[6] = CVC100 PO BID, UUO surgery, group terminated due to poor clinical condition
[7] = cirrhosis reversal, CVC 30 mg/kg/day
[8] = cirrhosis reversal, CVC 100 mg/kg/day
[9] = early intervention, CVC 30 mg/kg/day
[10] = early intervention, CVC 100 mg/kg/day
[11] = established fibrosis, CVC 30 mg/kg/day
[12] = established fibrosis, CVC 100 mg/kg/day
[13] = acute APAP-induced liver injury

**Q.** Which results are given for CCCCOCCOc1ccc(-c2ccc3c(c2)/C=C(/C(=O)Nc2ccc([S@@+]([O-])Cc4cncn4CCC)cc2)CCCN3CC(C)C)cc1 [CVC, cenicriviroc mesylate]?
**A.** Occupancy for CCR2 (blood and spleen) in proinflammatory monocytes ([1]; CVC 250 nM, murine cryopreserved PBMC ex vivo): > 90%; CCR2 occupancy ([1]; CVC concentrations of 250 nmol/L or higher, mouse monocytes and macrophages ex vivo): > 87%; Decrease in body weight vs UUO control ([2]; CVC20, Day 5, p < 0.05): 5%; Animals died prior to end of study [2, 6]: 6/9; Animals euthanized prior to end of study [2, 6]: 3/9; Contralateral kidney weight ([2]; CVC 7 mg/kg/day): 221.0 ± 10.1 mg; Final body weight ([2]; CVC 7 mg/kg/day): 26.3 ± 0.5 g; Obstructed kidney weight ([2]; CVC 7 mg/kg/day): 232.0 ± 11.9 mg; Contralateral kidney weight ([2]; CVC 20 mg/kg/day): 202.4 ± 6.1 mg; Final body weight ([2]; CVC 20 mg/kg/day): 25.7 ± 0.4 g; Obstructed kidney weight ([2]; CVC 20 mg/kg/day): 217.0 ± 6.7 mg; Final body weight [3, 7]: 390.3 ± 9.3 g; Liver weight [3, 7]: 19 ± 0.7 g; Liver-to-body weight ratio [3, 7]: 4.9±0.2%; Final body weight [3, 8]: 386.4 ± 4.9 g; Liver weight [3, 8]: 18.5 ± 0.7 g; Liver-to-body weight ratio [3, 8]: 4.8±0.2%; Final body weight [3, 9]: 330.9 ± 6.4 g; Liver weight [3, 9]: 17.9 ± 1.6 g; Liver-to-body weight ratio [3, 9]: 5.4±0.5%; Final body weight [3, 10]: 347.2 ± 6.9 g; Liver weight [3, 10]: 17.5 ± 0.5 g; Liver-to-body weight ratio [3, 10]: 5.0±0.1%; Final body weight [3, 11]: 342.0 ± 7.7 g; Liver weight [3, 11]: 15.6 ± 0.6 g; Liver-to-body weight ratio ([3]; established fibrosis, CVC 30 mg/kg/day, p < 0.05 vs vehicle control): 4.6±0.1 %; Final body weight [3, 12]: 327.3 ± 7.8 g; Liver weight [3, 12]: 15.8 ± 0.9 g; Liver-to-body weight ratio [3, 12]: 4.8±0.2%; mRNA expression of the fibrosis markers assessed, CVC vs vehicle control ([4]; TAA model): no significant changes; ALT levels, CVC-treated vs vehicle-control groups ([4]; TAA model, all groups): no significant differences; Reductions in collagen type 1 and alpha-SMA protein expression ([4]; advanced disease cirrhosis group): No reductions; Histologic differences between groups, H&E-stained liver sections ([4]; all TAA groups): No histologic differences; Reduction in collagen deposition ([4]; cirrhosis-reversal group, CVC treatment started at Week 8 (Weeks 8-12)): No significant reduction; Reduction in liver collagen deposition vs vehicle control ([4]; early intervention (Weeks 0-8), CVC30 QD PO): 48.5%; Reduction in liver collagen deposition vs vehicle control ([4]; early intervention (Weeks 0-8), CVC100 QD PO): 37.5%; AST levels vs vehicle control ([4]; early intervention group, CVC30, p < 0.05): significantly decreased; Reduction in protein expression of alpha-SMA vs vehicle control ([4]; early intervention, CVC30): 17%; Reduction in protein expression of collagen type 1 vs vehicle control ([4]; early intervention, CVC30): 29%; Reduction in protein expression of alpha-SMA vs vehicle control ([4]; early intervention, CVC100): 22%; Reduction in protein expression of collagen type 1 vs vehicle control ([4]; early intervention, CVC100): 12%; Reduction in liver collagen deposition vs vehicle control ([4]; established fibrosis (Weeks 4-8), CVC30 QD PO): 35.7%; Significant antifibrotic effect (collagen deposition) observed ([4]; established fibrosis (Weeks 4-8), CVC100 QD PO): not; Reduction in protein expression of alpha-SMA vs vehicle control ([4]; established fibrosis, CVC30): 14%; Reduction in protein expression of collagen type 1 vs vehicle control ([4]; established fibrosis, CVC30): 30%; Infiltration of Ly6Chi monocyte-derived macrophages into the liver ([5]; APAP model, preliminary data): significantly decreased; ALT levels relative to vehicle control [5, 13]: significant reduction; Necrotic area relative to vehicle control [5, 13]: significant reduction
